Consider four molecules from BindingDB's records for doi:10.1016/s0024-3205(03)00272-8 (Merck Research Laboratories, 2003).

For assay [1], the target named is T1, Alpha-2C adrenergic receptor (Rattus norvegicus, UniProt P22086).
T1 sequence (P22086 whole entry): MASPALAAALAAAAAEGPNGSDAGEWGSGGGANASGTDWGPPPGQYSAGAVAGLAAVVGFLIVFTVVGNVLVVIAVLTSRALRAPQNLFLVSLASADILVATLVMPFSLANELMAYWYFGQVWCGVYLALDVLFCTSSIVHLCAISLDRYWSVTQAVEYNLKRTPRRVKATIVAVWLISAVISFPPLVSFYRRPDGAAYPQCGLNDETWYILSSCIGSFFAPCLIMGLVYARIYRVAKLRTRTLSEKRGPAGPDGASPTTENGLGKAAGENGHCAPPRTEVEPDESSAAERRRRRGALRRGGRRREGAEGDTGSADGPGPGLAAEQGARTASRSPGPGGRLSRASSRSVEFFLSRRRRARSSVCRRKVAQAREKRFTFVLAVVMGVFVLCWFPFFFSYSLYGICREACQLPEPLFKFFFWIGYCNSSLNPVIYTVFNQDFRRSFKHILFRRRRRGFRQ

The target in assay [2] is T2, Retinoic acid receptor RXR-alpha (Rattus norvegicus, UniProt Q05343).
T2 sequence (Q05343 whole entry): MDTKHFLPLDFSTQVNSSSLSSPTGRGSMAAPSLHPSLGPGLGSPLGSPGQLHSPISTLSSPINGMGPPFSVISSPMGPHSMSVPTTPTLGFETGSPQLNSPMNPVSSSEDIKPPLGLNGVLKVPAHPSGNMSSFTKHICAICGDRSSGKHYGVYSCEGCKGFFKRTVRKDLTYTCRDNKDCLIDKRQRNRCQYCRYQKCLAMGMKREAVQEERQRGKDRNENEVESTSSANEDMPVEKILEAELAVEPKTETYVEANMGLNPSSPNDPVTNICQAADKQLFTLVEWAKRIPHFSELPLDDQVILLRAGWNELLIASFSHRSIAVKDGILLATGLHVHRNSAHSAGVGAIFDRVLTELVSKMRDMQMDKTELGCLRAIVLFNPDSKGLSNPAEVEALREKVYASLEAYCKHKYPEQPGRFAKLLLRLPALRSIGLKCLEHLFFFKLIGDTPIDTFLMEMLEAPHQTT

The target in assay [3] is Metabotropic glutamate receptor 1 (Rattus norvegicus, UniProt P23385).
Assay [4] addresses Metabotropic glutamate receptor 2 (Homo sapiens, UniProt Q14416).

Metabotropic glutamate receptor 2, sequence (Q14416 whole entry): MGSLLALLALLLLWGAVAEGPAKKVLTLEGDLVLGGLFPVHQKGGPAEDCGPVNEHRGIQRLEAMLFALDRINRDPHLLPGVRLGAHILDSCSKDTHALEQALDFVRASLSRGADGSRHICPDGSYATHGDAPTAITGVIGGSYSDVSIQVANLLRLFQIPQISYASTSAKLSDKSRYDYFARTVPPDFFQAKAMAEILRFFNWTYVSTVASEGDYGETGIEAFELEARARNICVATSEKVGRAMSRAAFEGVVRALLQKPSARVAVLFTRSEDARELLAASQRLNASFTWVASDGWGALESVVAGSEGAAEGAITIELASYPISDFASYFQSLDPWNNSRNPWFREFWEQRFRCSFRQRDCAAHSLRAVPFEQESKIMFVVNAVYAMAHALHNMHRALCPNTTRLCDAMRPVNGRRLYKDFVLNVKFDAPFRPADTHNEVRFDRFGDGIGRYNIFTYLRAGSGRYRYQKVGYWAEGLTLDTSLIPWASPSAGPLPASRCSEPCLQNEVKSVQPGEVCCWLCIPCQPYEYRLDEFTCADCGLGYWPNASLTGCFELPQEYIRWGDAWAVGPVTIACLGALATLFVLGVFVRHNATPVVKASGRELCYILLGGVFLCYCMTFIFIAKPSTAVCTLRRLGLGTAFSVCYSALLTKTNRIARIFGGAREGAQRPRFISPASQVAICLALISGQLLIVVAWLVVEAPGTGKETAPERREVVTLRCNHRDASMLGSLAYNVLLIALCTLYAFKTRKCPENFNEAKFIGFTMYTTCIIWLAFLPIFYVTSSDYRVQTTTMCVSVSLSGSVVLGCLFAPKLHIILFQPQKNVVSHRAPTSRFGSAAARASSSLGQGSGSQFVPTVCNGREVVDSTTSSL
Metabotropic glutamate receptor 1, sequence (P23385 whole entry): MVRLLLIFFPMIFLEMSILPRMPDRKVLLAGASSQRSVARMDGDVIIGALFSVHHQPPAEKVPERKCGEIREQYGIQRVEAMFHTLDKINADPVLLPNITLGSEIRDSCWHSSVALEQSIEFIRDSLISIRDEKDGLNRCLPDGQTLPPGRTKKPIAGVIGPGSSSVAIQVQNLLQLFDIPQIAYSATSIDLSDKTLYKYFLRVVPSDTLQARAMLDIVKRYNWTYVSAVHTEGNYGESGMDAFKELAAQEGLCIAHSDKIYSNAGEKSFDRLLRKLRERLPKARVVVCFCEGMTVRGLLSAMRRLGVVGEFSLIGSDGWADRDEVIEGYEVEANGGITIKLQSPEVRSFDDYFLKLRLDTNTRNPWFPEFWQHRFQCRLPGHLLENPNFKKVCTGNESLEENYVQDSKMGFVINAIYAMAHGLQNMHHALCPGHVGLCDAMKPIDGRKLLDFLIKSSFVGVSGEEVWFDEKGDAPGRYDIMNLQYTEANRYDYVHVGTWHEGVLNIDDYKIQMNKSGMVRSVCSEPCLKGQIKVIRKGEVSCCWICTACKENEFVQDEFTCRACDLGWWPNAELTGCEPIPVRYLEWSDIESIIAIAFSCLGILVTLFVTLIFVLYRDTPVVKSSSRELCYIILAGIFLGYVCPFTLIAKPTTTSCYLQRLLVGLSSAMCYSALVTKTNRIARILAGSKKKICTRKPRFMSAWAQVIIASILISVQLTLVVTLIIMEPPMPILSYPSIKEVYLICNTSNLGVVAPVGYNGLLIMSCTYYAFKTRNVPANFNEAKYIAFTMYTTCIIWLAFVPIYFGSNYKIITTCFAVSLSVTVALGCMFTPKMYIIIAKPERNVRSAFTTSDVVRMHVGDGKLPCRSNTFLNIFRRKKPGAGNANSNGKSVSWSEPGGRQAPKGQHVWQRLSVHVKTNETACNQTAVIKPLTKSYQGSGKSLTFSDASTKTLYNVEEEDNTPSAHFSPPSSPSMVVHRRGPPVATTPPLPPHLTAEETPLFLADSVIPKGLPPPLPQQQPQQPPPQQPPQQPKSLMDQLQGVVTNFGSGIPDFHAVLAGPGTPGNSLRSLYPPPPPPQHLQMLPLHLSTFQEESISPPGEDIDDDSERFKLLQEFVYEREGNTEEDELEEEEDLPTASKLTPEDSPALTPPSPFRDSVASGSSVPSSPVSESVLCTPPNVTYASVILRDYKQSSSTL

Regarding `COc1cccc(OC)c1OCCNCC1CSc2ccccc2O1` (centres undefined) [NSC_2325], in assay [1], the affinity corresponds to a Ki of 7.6 µM.

Turning to `CC12NC(Cc3ccccc31)c1ccccc12` (centres undefined) [CAS_180081], the Ki (in general, the equilibrium dissociation constant of an inhibitor or competing ligand from its target) in assay [2] turned out to be 7.6 µM. Molecule `NC(C(=O)O)c1ccc(C(=O)O)cc1` (centres undefined) [4-(Amino-carboxy-methyl)-benzoic acid] returned a Ki in assay [3] of 1.1 µM. As to `NC1(C(=O)O)CCc2cc(C(=O)O)ccc21` (racemic) [AIDA], in assay [4], the inhibition constant (Ki) was determined as 1.1 µM.
